Experimental findings from patent US9370506B2, “Modulators of aldehyde dehydrogenase and methods of use thereof” (The Board of Trustees of the Leland Stanford Junior …, priority 2008, dated 2016) are described below.

For assay [1], the system named is SCC VII murine squamous cell carcinoma cells. Briefly: Tumor radiation therapy model. The class given is in vivo, mice. As to conditions: topical 200 μl of 3 mM, FIG. 21. How it is done:
In order to determine the impact of Alda-1 on the effectiveness of radiation therapy, C57Bl/6J mice were inoculated subcutaneously with SCC VII murine squamous cell carcinoma cells (5×10^5) and exposed to radiation therapy (250cGy/day) in the absence or presence of Alda-1 (200 μl of 3 mM Alda-1 in 95% ethanol) or ethanol (200 μl of 95% ethanol) applied 5 min before and 5 min after radiation. Tumor volume was measured daily until the tumor reached four times its starting size at treatment onset (Ning et al., 2008, Mol Cancer Therapy 7:1569-78).

The next assay has as its target T1, ALDH2 isozyme (Homo sapiens, UniProt P05091).
T1 construct: made in house; host or cells: BL21 E. coli
T1 sequence (P05091 18-517): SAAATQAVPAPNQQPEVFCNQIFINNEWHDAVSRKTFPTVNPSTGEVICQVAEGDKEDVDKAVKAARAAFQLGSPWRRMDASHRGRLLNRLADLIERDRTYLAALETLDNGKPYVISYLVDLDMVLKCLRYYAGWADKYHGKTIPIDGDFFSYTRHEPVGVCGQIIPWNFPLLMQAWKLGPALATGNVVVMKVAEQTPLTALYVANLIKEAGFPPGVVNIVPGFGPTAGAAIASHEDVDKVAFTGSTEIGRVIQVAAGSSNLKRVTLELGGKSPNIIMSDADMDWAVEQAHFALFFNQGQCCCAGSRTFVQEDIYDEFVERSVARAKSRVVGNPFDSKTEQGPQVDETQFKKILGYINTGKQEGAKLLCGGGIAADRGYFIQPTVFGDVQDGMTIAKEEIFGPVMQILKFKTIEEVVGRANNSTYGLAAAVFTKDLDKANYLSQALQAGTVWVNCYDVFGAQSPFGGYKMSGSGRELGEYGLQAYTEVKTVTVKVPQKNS
As to the kind of experiment: ALDH2 enzymatic activity, spectrophotometric NAD+ to NADH assay. The class given is biochemical. The note with it: 40 uM. The protocol:
(§1) Reagents for plant-derived compounds safrole, isosafrole, piperine, sesamin, capsaicin were purchased from Sigma-Aldrich Chemicals and dihydromethysticin was purchased from AvaChem. Scientific. Piperine related compounds, Alda-101 to Alda-112, were synthesized by standard organic chemistry. All testing compounds were dissolved in dimethyl-sulfoxide (DMSO) to obtain a stock solution of 20 mM. Different recombinant ALDH isozymes with a His-epitope tag at the N-terminus were constructed, cloned and expressed in BL21 E. coli host cells according published methods (Chen et al., 2008 Science 321:1493). The bacteria were subjected to 0.5 mM IPTG induction for protein expression at 30° C. Purification of the recombinant proteins by affinity nickel columns were carried out using a standard protocol according to manufacturer's instructions (Novagen, Wis., USA).
(§2) ALDH enzymatic activity was determined spectrophotometrically using purified recombinant protein (15 ug) in the reductive reaction of NAD^+ to NADH at λ340 nm (Rex et al., 1985, Alcohol Clin Exp Res 9: 147). All the assays in the presence of absence of a testing compound were carried out at 25° C. in […] pyrophosphate buffer, pH=9.5, 2.4 mM NAD+ and 10 mM acetaldehyde or phenylacetaldehyde as a substrate.

A further assay concerns C57Bl/6J mice. As to the kind of experiment: Radiation dermatitis model, gamma irradiation of skin. The class given is in vivo. The source says: Radiation dermatitis is a painful side effect experienced by human patients undergoing radiotherapy for solid tumors. Radiation dermatitis is believed to be due to acute oxidative injury to the skin, which leads to lipid peroxidation and the accumulation of reactive aldehydes, such as 4-hydrorxynonenal. In this example, Alda-1 is shown to reduce radiation dermatitis by maintaining ALDH activity during exposure to radiation. C57Bl/6J mice were exposed to 6Gy gamma irradiation per day (applied directly to the shaved back area over a period of 5 minutes) in the absence or presence of 200 μl of 3 mM Alda-1 (in 95% ethanol) or […] alone (vehicle control). Alda-1 or ethanol alone was applied topically 5 minutes before and 5 minutes after each radiation treatment for a total of 10 sessions (60 Gy total, 6 Gy/day with a two-day break after 5 sessions). Mice were euthanized and exposed skin was dissected, and either homogenized in Lysis Buffer (for ALDH2 activity assay, FIG. 18) or fixed in 4%-paraformaldehyde (for histological analysis, FIG. 19).

A further assay has as its target T2, ALDH3 (Homo sapiens, UniProt P30838).
T2 construct: made in house; host or cells: BL21 E. coli
T2 sequence (P30838 1-453): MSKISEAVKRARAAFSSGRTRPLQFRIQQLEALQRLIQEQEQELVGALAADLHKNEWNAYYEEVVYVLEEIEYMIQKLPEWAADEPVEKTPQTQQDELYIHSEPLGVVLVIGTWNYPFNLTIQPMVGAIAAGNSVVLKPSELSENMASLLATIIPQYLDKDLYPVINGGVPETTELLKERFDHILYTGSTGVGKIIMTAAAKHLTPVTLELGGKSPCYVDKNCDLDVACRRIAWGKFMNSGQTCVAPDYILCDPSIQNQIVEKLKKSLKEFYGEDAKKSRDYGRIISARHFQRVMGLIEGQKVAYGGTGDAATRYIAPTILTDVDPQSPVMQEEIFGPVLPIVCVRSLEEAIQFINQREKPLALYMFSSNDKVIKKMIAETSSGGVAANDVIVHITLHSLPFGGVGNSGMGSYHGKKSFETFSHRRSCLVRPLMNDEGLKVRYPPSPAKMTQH
Briefly: ALDH3 enzymatic activity, spectrophotometric NAD+ to NADH assay. The class given is biochemical. The note with it: acetaldehyde as substrate; FIG. 15. The protocol: as §1, §2

Take `O=C(NCc1ccc2c(c1)OCO2)c1c(Cl)cccc1Cl` [Alda-1, N-(1,3-benzodioxol-5-ylmethyl)-2,6-dichlorobenzamide]: the “sensitivity of the tumor to radiation treatment (tumor growth)” value in assay [1] (250cGy/day, vs ethanol vehicle control) is recorded as “increased significantly the sensitivity of the tumor to radiation treatment”. Moreover, the “tumor growth in non-irradiated mice” value in assay [1] (no radiation, vs ethanol treated mice) was “no effect on tumor growth”. The “effect of co-incubation on safrole inhibition of ALDH2” value on ALDH2 isozyme (safrole 500 uM & 1000 uM, FIG. 17) was “prevented and reversed”. The “effect of co-incubation on safrole inhibition of ALDH2, 15-minute kinetic measurements” value on ALDH2 isozyme (safrole 1000 uM, FIG. 18) was “prevented and reversed”. Besides, the “ALDH activity in irradiated skin” value in the assay on C57Bl/6J mice (topical 3 mM in 95% ethanol, 6Gy gamma irradiation, FIG. 19) was “significantly attenuated the inhibition of ALDH”. Moreover, the “Epidermal thickening after radiation” value with C57Bl/6J mice (topical 3 mM, 5 days exposure to 6Gy irradiation, vs vehicle control, FIG. 20) was “significantly reduced”. In addition, at ALDH3, the “effect on enzymatic activity of ALDH3 isozyme” value is on record as “does not have any effect”.
